# Measurements as given in patent US20180311238A1, “Selective Agonist Of a6 Containing nAChRs” (Saniona A/S, priority 2017, published 2018).
# Tests used:
# [1] = test system: nicotinic receptors in the brain; type: in vivo, mice
# Procedure: Accumulation of ^3H-epibatidine occurs preferentially in brain regions containing nicotinic receptors. […] The specific binding in thalamus reaches a maximum 30 min after an i.v. injection of ^3H-epibatidine and this maximum is maintained for another 30 min.
# All test substances were administered as solutions or suspensions prepared in vehicle (e.g. saline, water, 5% glucose, 0.5% CMC, 0.5% HPMC or 10% HPβCD) and tested in serial 1:3 dilutions. Doses were adjusted for salt.
# Groups of three female NMRI mice (25 g) were administered vehicle or test substance p.o. at a volume of 0.75 ml. Mice were injected i.v. via the tail vein with 1 μCi of ^3H-epibatidine in 0.2 ml saline 45 min before decapitation. At the time of decapitation, the thalamus and a piece of cerebellum were rapidly dissected on ice. Tissues were weighed and dissolved for 36 h with 1 ml 2% sodium-laurylsulfate. The solubilized tissue was then added 2 ml of scintillation cocktail, and the amount of radioactivity in the tissue was counted by conventional liquid scintillation counting. Groups of vehicle-treated mice served as controls. Non-specific binding was defined as the amount of binding in cerebellum in vehicle treated mice.
# Specific binding was determined as the amount of binding (dpm/5 mg tissue) in thalamus minus the amount of binding in cerebellum (dpm/5 mg tissue) in vehicle mice. […]
# [2] = target: T1, α7 (Homo sapiens, UniProt P36544); test: Oocyte two-electrode voltage-clamp electrophysiology, α7; type: cell-based; conditions: Xenopus laevis oocytes, peak currents
# T1 construct: expressed in transfected cells; host or cells: Xenopus laevis oocytes injected with cRNA
# T1 sequence (P36544 23-502): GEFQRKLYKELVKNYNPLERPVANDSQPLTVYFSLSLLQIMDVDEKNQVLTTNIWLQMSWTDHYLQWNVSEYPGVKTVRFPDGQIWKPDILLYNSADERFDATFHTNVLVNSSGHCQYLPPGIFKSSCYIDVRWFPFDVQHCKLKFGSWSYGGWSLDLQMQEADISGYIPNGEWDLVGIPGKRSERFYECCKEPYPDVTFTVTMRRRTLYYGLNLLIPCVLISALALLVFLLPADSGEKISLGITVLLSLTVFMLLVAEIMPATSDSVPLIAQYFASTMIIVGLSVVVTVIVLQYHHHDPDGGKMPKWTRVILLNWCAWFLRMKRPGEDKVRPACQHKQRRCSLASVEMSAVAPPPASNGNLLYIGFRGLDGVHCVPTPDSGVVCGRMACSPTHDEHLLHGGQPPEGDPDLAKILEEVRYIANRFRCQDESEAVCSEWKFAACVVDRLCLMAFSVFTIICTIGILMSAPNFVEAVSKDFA
# Procedure: (§1) Two-electrode voltage-clamp electrophysiology recordings were done in Xenopus laevis oocytes injected with approximately 25 ng cRNA. After injection, oocytes were incubated at 17° C. for 2-3 days. During measurements, an oocyte was placed in a custom designed recording chamber where compound solutions are added directly to the oocyte via a glass capillary. Compound solutions were prepared on the day of measurement and applied to oocytes with a flowrate of 2.0 ml/min. All datasets were baseline subtracted and responses to individual applications were read as peak current amplitudes. Concentration response relationships describing compound effect at a fixed acetylcholine concentration were fitted to a monophasic Hill-equation. Potency (EC50) and efficacy values (fitted maximal current relative to maximal current of acetylcholine).
# [3] = test system: reserpine-induced tremors; test: Reserpine-induced tremors in rats (tremor monitor power spectra); type: in vivo, rat; conditions: reserpine 1 mg/kg i.v.; compound 0.1 and 1.0 mg/kg s.c.; L-DOPA 100 mg/kg i.p. + benserazide
# Description: Parkinson's disease is associated with severe dopamine deficiency caused by neurodegeneration of dopaminergic cell bodies residing in Substantia Nigra pars compacta. As alpha6 nAChRs are enriched in the nigrostriatal dopamine pathway, activating this receptor may ameliorate symptoms in nigro-striatal dopamine deficiency models. Reserpine injections to rodents result in depletion of monoamines in the nigro-striatal dopamine pathway, resulting in catalepsy and tremors. Both behaviours can be quantified using dedicated tremor boxes.
# Six groups of male Sprague Dawley rats (250-300 grams) were subjected to the following treatment schedules, and effects on power spectra, assessed in automated tremor monitors were evaluated for 30 minutes: • Vehicle+vehicle • Vehicle+reserpine (1 mg/kg) • 9-Methyl-3-pyridin-3-yl-3,9-diaza-bicyclo[3.3.1]nonane (0.1 mg/kg)+reserpine (1 mg/kg) • 9-Methyl-3-pyridin-3-yl-3,9-diaza-bicyclo[3.3.1]nonane (1.0 mg/kg)+reserpine (1 mg/kg) • L-DOPA (100 mg/kg)+reserpine (1 mg/kg) • 9-Methyl-3-pyridin-3-yl-3,9-diaza-bicyclo[3.3.1]nonane (1.0 mg/kg)+L-DOPA (100 mg/kg)+reserpine (1 mg/kg)
# Reserpine was pre-treated i.v. 60 minutes prior to test start in a dose volume of 2 ml/kg. 9-Methyl-3-pyridin-3-yl-3,9-diaza-bicyclo[3.3.1]nonane was pre-treated s.c. 45 minutes prior to test start in a dose volume of 1 ml/kg. The dose of 9-methyl-3-pyridin-3-yl-3,9-diaza-bicyclo[3.3.1]nonane was based on 3H-epibatidin displacement studies showing half maximal displacement of specific binding of 3H-epibatidin in doses equaling 0.15 mg/kg in rats. L-DOPA was pre-treated i.p. 30 minutes prior to test start in a dose volume of 5 ml/kg. […] All animals dosed with L-DOPA was also dosed with the peripherally acting decarboxylase inhibitor Benserazide to prevent the peripheral break down of L-DOPA (benserazide: 50 mg/kg, s.c., 30 min. prior to test start in a dose volume of 1 ml/kg).
# [4] = test system: nicotinic receptors; test: 3H-epibatidin displacement studies in rats; type: in vivo
# [5] = test system: α4β2 cHS/cLS receptors; test: Oocyte two-electrode voltage-clamp electrophysiology, α4β2; type: cell-based; conditions: Xenopus laevis oocytes
# Procedure: as §1
# [6] = target: T2, nAChRs of the α4β2 subtype (Rattus norvegicus, UniProt P09483+P12390); test: In vitro inhibition of 3H-cytisine binding, rat cortex; conditions: ligand 3H-cytisine
# T2 construct: from tissue; host or cells: rat cerebral cortex membranes
# T2 sequence (P09483 31-630): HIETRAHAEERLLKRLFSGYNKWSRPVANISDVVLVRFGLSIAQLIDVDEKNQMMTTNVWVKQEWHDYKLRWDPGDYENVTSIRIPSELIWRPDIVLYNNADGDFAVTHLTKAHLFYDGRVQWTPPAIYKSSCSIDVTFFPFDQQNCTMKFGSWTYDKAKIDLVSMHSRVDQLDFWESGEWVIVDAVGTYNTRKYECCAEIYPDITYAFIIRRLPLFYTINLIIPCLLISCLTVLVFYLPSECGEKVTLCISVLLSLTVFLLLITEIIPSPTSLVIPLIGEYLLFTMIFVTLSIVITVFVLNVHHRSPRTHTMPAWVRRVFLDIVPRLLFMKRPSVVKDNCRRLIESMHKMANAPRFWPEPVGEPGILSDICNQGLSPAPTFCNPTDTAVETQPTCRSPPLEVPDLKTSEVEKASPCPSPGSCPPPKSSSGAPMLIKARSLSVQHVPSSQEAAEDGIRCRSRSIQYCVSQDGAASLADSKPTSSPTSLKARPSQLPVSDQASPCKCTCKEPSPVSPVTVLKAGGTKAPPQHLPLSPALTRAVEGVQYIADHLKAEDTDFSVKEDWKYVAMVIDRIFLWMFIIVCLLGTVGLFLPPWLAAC
# T2 sequence (P12390 25-500): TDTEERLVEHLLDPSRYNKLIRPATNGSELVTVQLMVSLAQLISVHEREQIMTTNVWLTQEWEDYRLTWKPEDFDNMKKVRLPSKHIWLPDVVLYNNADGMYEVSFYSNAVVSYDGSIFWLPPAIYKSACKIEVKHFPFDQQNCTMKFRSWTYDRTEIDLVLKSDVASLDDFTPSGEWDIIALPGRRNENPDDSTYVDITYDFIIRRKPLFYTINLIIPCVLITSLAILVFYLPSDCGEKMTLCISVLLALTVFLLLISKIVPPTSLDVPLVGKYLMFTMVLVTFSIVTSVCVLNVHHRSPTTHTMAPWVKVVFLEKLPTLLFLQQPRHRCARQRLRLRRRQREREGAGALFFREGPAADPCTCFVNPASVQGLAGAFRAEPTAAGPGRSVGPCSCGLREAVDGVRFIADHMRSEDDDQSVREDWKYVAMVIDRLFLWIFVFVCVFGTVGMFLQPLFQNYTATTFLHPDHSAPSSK
# Procedure: The predominant subtype with high affinity for nicotine is comprised of α4 and β2 subunits. Here, the nicotine agonist ^3H-cytisine is used to selectively label nAChRs of the α4β2 subtype.
# Preparations were performed at 0-4° C. Cerebral cortices from male Wistar rats (150-250 g) were homogenized for 20 sec in 15 ml Tris-HCl (50 mM, pH 7.4) containing 120 mM NaCl, 5 mM KCl, 1 mM MgCl2 and 2.5 mM CaCl2 using an Ultra-Turrax homogenizer. The homogenate was centrifuged at 27,000×g for 10 min. The supernatant was discarded and the pellet is re-suspended in fresh buffer and centrifuged a second time. The final pellet was re-suspended in fresh buffer (35 ml per g of original tissue) and used for binding assays.
# Aliquots of 500 μl homogenate were added to 25 μl of test solution and 25 μl of ^3H-cytisine (1 nM, final concentration), mixed and incubated for 90 min at 0-4° C. Non-specific binding (5-10% of total binding) was determined using 100 μM (−)-nicotine. […]
# Binding was terminated by rapid filtration onto Whatman GF/B glass fibre filters using a Brandel Cell Harvester, followed by seven washes with 2 ml ice-cold buffer. The amount of radioactivity on the filters was determined by conventional liquid scintillation counting using a Tri-Carb™ counter (PerkinElmer Life and Analytical Sciences).
# Specific binding was calculated as total binding minus non-specific binding.
structure (smiles),measurement,setting,value
"CN1C2CCCC1CN(c1cccnc1)C2 [9-methyl-3-pyridin-3-yl-3,9-diaza-bicyclo[3.3.1]nonane]","ED50, inhibition of specific binding of 3H-epibatidine","[1]; mice pre-dosed for 45 min, p.o.",1.3 mg/kg
same,maintained brain exposure (duration),"[1]; mice, 2 mg/kg p.o., time course up to 6 hours",at least 6 hours
same,EC50,[2],13 µM
same,"effect on reserpine-induced tremors, AUC 40-63 Hz",[3],dose-related reversal of reserpine tremors reaching statistical significance at 1.0 mg/kg
same,"reversal of reserpine-induced reduction of low frequency movements (catalepsy), AUC 3-13 Hz",[3],"Neither threshold dose of L-DOPA, nor 9-methyl-3-pyridin-3-yl-3,9-diaza-bicyclo[3.3.1]nonane or the combination of the two, was able to reverse this reduction"
same,dose giving half maximal displacement of specific binding of 3H-epibatidin,[4],0.15 mg/kg
same,efficacy,[5],practically no efficacy
same,Ki,[6],0.0031 µM
